Data as given in ChEMBL document CHEMBL5291721, “A preclinical secondary pharmacology resource illuminates target-adverse drug reaction associations of marketed drugs” (Nat Commun, 2023).

Columns and labels:
[1] = target: T1, Muscarinic acetylcholine receptor M2 (Homo sapiens, UniProt P08172)
T1 sequence (P08172 whole entry): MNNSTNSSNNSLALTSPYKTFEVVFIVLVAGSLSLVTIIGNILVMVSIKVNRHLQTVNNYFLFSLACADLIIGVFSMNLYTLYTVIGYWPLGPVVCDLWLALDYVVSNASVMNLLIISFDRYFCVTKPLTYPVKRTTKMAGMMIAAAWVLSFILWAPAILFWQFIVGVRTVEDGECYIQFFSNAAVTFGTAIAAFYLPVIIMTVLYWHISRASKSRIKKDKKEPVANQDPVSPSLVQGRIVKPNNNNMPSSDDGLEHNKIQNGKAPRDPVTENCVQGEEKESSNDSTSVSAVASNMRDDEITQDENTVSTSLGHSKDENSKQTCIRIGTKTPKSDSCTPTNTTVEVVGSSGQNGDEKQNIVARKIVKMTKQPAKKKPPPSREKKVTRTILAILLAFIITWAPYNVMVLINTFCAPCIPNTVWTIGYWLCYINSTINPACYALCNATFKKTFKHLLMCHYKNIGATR

[2] = target: Sodium channel protein type 5 subunit alpha (Homo sapiens, UniProt Q14524); assay type: functional, cell-based
[3] = target: Gamma-aminobutyric acid receptor subunit alpha-1/alpha-2/beta-2/gamma-2 (Homo sapiens, UniProt P14867+P18507+P47869+P47870); assay type: functional, cell-based
Histamine H2 receptor = Histamine H2 receptor (Homo sapiens, UniProt P25021)
[4] = target: T2, Corticotropin-releasing factor receptor 2 (Homo sapiens, UniProt Q13324)
T2 sequence (Q13324 whole entry): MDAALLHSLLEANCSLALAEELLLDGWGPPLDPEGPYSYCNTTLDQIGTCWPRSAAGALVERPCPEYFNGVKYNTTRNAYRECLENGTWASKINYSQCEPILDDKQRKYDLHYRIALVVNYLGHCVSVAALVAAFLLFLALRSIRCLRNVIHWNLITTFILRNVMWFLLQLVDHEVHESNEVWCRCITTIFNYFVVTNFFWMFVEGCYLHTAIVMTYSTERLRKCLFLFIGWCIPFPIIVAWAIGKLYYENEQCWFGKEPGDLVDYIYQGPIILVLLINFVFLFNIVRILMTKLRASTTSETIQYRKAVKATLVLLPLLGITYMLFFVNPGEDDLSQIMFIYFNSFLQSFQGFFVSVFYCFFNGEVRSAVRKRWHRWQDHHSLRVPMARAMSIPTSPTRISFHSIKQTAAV

[5] = target: T3, Endothelin receptor type B (Homo sapiens, UniProt P24530)
T3 sequence (P24530 whole entry): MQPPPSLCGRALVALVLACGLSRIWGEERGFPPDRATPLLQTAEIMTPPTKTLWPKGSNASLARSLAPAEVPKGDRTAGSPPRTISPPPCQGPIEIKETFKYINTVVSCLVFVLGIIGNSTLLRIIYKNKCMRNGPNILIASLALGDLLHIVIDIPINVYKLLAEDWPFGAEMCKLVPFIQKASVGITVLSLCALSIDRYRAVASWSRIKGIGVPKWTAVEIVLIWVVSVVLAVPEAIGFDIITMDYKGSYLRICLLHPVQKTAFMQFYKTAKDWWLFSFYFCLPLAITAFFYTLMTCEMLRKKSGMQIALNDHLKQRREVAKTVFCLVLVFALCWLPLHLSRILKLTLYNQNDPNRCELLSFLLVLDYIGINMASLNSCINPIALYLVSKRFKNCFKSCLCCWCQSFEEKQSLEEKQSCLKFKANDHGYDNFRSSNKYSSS

[6] = target: Beta-3 adrenergic receptor (Homo sapiens, UniProt P13945)
[7] = target: T4, Neuropeptide Y receptor type 2 (Homo sapiens, UniProt P49146)
T4 sequence (P49146 whole entry): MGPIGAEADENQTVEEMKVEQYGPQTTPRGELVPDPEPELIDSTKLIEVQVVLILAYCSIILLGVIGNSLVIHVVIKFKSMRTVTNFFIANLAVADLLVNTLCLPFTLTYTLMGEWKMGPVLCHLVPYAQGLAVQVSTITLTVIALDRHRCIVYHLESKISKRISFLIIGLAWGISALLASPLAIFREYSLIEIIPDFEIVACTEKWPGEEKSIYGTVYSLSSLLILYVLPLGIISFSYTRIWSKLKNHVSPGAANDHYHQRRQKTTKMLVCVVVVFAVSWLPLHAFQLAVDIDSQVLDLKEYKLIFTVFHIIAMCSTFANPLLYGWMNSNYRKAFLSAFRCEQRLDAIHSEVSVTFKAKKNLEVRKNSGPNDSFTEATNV

B1 bradykinin receptor = target: T5, B1 bradykinin receptor (Homo sapiens, UniProt P46663)
T5 sequence (P46663 whole entry): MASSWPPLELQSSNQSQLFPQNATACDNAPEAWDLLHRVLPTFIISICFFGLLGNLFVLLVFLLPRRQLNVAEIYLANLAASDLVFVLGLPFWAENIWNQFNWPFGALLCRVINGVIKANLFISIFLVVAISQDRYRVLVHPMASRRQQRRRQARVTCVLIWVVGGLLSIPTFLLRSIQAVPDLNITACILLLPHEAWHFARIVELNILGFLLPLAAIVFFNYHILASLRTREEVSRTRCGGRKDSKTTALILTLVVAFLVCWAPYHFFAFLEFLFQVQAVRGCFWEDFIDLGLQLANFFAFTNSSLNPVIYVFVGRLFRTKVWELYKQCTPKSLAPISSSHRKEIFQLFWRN

Glucagon receptor = Glucagon receptor (Homo sapiens, UniProt P47871)
Estrogen receptor beta = Estrogen receptor beta (Homo sapiens, UniProt Q92731)
[8] = target: 5-hydroxytryptamine receptor 2B (Homo sapiens, UniProt P41595)
Substance-P receptor = Substance-P receptor (Homo sapiens, UniProt P25103)
Also: assay procedure not described here.

Sequence of Substance-P receptor (P25103 whole entry): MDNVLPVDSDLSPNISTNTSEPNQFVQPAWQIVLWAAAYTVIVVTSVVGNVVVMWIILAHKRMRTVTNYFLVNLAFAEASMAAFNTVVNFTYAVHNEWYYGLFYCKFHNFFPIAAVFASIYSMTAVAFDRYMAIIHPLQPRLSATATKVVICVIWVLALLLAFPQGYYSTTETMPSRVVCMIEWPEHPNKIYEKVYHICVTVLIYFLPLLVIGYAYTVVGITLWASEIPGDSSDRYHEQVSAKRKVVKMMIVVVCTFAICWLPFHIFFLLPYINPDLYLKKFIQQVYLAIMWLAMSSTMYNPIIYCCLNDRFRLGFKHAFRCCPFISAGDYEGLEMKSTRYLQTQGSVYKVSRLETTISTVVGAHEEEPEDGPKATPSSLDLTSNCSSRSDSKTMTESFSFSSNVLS
Sequence of Sodium channel protein type 5 subunit alpha (Q14524 whole entry): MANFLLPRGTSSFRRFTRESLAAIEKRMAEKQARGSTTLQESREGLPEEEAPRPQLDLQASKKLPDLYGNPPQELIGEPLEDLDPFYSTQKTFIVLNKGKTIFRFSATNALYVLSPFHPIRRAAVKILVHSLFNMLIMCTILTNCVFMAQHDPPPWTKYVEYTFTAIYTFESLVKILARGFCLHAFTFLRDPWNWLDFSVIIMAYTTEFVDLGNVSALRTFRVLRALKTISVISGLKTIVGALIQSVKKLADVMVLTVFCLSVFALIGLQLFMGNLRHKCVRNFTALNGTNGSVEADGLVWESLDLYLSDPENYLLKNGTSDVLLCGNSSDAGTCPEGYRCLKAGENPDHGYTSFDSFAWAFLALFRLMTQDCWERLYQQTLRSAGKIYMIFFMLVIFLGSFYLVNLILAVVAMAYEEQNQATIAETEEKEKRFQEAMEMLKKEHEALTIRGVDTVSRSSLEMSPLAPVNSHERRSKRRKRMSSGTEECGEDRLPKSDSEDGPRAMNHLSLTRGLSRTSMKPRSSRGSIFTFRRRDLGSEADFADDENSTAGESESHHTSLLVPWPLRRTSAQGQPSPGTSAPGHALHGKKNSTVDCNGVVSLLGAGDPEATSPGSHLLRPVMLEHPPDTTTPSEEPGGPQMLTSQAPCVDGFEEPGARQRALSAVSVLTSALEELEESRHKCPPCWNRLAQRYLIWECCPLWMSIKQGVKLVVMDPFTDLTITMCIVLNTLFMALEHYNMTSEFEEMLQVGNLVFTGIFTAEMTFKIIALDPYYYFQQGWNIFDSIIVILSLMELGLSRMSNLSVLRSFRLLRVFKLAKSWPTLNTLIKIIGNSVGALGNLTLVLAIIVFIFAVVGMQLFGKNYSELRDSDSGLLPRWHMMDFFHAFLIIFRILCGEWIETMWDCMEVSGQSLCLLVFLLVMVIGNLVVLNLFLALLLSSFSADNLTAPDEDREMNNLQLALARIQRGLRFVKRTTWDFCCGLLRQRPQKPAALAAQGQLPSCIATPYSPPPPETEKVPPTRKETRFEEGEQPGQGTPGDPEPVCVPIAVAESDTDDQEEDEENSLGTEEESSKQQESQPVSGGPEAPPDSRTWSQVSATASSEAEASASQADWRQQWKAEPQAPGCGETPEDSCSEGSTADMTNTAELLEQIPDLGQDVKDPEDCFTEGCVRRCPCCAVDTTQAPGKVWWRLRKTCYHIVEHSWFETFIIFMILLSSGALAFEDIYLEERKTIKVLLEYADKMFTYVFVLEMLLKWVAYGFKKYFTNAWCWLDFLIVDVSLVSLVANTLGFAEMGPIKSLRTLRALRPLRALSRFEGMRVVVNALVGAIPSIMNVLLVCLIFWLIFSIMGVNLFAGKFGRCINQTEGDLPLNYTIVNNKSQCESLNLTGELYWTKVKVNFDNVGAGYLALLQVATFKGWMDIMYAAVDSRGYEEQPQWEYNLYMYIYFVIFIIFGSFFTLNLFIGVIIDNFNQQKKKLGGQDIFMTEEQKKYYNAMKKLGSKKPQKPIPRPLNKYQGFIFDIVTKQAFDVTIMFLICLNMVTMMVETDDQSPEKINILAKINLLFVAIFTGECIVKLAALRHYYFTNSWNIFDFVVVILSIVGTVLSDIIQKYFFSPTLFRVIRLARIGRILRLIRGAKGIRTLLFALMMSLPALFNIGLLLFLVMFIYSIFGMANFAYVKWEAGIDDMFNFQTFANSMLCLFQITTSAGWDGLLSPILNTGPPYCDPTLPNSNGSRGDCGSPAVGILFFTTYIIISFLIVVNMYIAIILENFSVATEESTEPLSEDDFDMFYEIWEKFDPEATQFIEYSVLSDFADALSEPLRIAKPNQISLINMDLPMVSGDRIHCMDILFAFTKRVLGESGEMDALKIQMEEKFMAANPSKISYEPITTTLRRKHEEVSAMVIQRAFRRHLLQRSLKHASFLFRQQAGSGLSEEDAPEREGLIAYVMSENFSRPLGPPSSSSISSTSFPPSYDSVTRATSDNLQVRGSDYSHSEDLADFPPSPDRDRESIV
Sequence of Histamine H2 receptor (P25021 whole entry): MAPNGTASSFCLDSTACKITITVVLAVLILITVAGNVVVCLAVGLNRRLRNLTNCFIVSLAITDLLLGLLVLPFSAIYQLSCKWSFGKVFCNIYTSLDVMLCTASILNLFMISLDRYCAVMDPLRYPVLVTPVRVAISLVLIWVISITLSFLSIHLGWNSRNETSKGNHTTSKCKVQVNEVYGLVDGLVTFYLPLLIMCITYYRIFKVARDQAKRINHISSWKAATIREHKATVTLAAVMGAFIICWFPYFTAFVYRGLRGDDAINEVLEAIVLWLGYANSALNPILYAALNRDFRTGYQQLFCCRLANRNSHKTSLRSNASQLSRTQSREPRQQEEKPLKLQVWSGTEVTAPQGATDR
Sequence of Beta-3 adrenergic receptor (P13945 whole entry): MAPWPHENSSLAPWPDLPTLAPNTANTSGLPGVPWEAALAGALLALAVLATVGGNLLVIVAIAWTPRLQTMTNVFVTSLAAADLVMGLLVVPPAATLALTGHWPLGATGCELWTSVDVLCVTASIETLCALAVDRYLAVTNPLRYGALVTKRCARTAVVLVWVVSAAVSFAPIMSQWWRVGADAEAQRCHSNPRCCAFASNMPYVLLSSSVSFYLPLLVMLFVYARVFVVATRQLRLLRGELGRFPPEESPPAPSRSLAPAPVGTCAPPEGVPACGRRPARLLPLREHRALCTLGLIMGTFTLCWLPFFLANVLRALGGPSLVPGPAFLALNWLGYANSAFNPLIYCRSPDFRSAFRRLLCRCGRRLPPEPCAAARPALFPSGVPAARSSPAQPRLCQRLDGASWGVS
Sequence of 5-hydroxytryptamine receptor 2B (P41595 whole entry): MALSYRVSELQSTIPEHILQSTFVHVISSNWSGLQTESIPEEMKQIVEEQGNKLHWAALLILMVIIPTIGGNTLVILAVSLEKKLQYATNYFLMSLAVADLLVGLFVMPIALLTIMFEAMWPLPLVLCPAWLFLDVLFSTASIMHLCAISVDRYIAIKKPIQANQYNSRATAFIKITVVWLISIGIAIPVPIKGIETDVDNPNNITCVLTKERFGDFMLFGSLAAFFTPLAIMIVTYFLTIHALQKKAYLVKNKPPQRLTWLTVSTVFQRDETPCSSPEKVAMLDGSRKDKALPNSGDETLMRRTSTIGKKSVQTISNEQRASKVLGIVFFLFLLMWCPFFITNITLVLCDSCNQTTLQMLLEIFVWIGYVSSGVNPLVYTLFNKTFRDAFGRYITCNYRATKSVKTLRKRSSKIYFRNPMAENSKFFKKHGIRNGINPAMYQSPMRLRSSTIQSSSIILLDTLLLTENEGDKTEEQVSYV
Sequence of Glucagon receptor (P47871 whole entry): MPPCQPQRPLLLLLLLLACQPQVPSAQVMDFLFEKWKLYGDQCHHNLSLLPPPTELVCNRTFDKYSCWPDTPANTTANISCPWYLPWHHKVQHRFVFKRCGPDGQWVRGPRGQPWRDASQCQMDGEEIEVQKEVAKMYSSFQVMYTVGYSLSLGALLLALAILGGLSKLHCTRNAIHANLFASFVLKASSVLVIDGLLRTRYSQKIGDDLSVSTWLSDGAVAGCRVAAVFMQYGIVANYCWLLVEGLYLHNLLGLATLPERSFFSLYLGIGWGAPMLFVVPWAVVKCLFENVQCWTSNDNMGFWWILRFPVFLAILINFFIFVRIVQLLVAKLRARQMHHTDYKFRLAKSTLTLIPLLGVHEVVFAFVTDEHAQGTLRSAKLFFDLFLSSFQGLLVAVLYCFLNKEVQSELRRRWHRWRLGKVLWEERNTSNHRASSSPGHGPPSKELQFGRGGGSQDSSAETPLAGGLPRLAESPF
Sequence of Estrogen receptor beta (Q92731 whole entry): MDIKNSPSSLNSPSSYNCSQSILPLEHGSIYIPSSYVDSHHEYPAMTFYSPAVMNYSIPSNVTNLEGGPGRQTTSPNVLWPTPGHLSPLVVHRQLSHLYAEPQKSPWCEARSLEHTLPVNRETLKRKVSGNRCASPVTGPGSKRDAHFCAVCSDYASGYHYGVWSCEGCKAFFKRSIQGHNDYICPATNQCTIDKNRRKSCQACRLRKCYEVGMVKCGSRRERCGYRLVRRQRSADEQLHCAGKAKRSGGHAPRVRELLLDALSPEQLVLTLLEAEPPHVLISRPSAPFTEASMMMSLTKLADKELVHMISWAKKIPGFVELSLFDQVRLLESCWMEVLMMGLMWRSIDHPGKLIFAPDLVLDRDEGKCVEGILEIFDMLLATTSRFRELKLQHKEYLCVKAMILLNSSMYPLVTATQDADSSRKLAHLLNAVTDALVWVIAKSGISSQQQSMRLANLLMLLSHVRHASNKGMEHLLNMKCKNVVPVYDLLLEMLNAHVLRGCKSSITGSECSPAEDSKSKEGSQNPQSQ

For `C[N+]12CCC(CC1)C(OC(=O)C(O)(c1ccccc1)c1ccccc1)C2` (configuration not stated), the AC50 [1] was 0.0032 µM.

Compound `CO/N=C(\C(=O)N[C@@H]1C(=O)N2C(C(=O)O)=C(CSc3nc(=O)c(=O)[nH]n3C)CS[C@H]12)c1csc(N)n1` [CEFTRIAXONE] has an AC50 [2] of over 50 µM and an AC50 [3] of over 30 µM.

`COc1cc(N)c(Cl)cc1C(=O)NC1CCN(CCCOc2ccc(F)cc2)CC1OC` (configuration not stated) [CISAPRIDE] was tested, and the AC50 [2] was over 50 µM, the AC50 (Histamine H2 receptor) was over 10 µM and the AC50 [4] was over 30 µM. It also gave an AC50 [5] of over 30 µM, an AC50 [6] of over 30 µM and an AC50 [7] of over 30 µM. For the same compound, the AC50 [1] was over 10 µM, the AC50 (B1 bradykinin receptor) was over 30 µM and the AC50 (Glucagon receptor) was over 30 µM.

With `CCOC(=O)C(C)(C)Oc1ccc(Cl)cc1` [CLOFIBRATE] the AC50 [4] was over 30 µM, the AC50 [5] was over 30 µM and the AC50 [6] was over 30 µM. It also gave an AC50 [7] of over 30 µM, an AC50 [1] of over 10 µM and an AC50 (Estrogen receptor beta) of over 30 µM. For the same compound, the AC50 (B1 bradykinin receptor) was over 30 µM and the AC50 (Glucagon receptor) was over 30 µM.

Compound `CCCCOc1ccc(C(=O)CCN2CCCCC2)cc1` [DYCLONINE] has an AC50 (Histamine H2 receptor) of 3.13 µM, an AC50 [4] of over 30 µM and an AC50 [5] of over 30 µM. It also gave an AC50 [6] of over 30 µM, an AC50 [7] of over 30 µM and an AC50 [1] of 2.81 µM. For the same compound, the AC50 (Estrogen receptor beta) was over 30 µM, the AC50 (B1 bradykinin receptor) was over 30 µM and the AC50 [8] was over 10 µM. It also gave an AC50 (Substance-P receptor) of over 10 µM and an AC50 (Glucagon receptor) of over 30 µM.

`CC(C)NC[C@H](O)COc1ccc(CC(N)=O)cc1` [ESATENOLOL] showed an AC50 (Histamine H2 receptor) of over 10 µM, an AC50 [4] of over 30 µM and an AC50 [5] of over 30 µM. It also gave an AC50 [7] of over 30 µM, an AC50 (B1 bradykinin receptor) of over 30 µM and an AC50 (Substance-P receptor) of over 10 µM. The AC50 (Glucagon receptor) was over 30 µM.

`NNC(=O)c1ccncc1` [ISONIAZID] showed an AC50 (Histamine H2 receptor) of over 10 µM, an AC50 [4] of over 30 µM and an AC50 [5] of over 30 µM. For the same compound, the AC50 [6] was over 30 µM, the AC50 [7] was over 30 µM and the AC50 (Estrogen receptor beta) was over 30 µM. For the same compound, the AC50 (B1 bradykinin receptor) was over 30 µM, the AC50 [8] was over 10 µM and the AC50 (Substance-P receptor) was over 10 µM. It also gave an AC50 (Glucagon receptor) of over 30 µM.

`COc1ccc(CN2CCN(C(c3ccc(F)cc3)c3ccc(F)cc3)CC2)c(OC)c1OC` [LOMERIZINE] showed an AC50 [2] of 16 µM.

Compound `O=C1Nc2ccc(Cl)cc2C(c2ccccc2Cl)=NC1O` (configuration not stated) [LORAZEPAM] has an AC50 (Histamine H2 receptor) of over 10 µM, an AC50 [4] of over 30 µM and an AC50 [5] of over 30 µM. It also gave an AC50 [6] of over 30 µM, an AC50 [7] of over 30 µM and an AC50 [1] of over 10 µM. It also gave an AC50 (Estrogen receptor beta) of over 30 µM, an AC50 (B1 bradykinin receptor) of over 30 µM and an AC50 [8] of over 10 µM. For the same compound, the AC50 (Substance-P receptor) was over 10 µM and the AC50 (Glucagon receptor) was over 30 µM.

`Cc1ccnc2c1NC(=O)c1cccnc1N2C1CC1` [NEVIRAPINE] showed an AC50 (Histamine H2 receptor) of over 10 µM, an AC50 [4] of over 30 µM and an AC50 [5] of over 30 µM. The AC50 [6] was over 30 µM, the AC50 [7] was over 30 µM and the AC50 [1] was over 10 µM. It also gave an AC50 (Estrogen receptor beta) of over 30 µM, an AC50 (B1 bradykinin receptor) of over 30 µM and an AC50 [8] of over 10 µM. For the same compound, the AC50 (Substance-P receptor) was over 10 µM and the AC50 (Glucagon receptor) was over 30 µM.

`O=C(NCCO[N+](=O)[O-])c1cccnc1` [NICORANDIL] gave an AC50 [3] of over 30 µM.
